Read-outs that look alike come from different tables or passages of the source. *1 amine or outer side, *2 acyl side, *3 side chain or, on linkers, in order; H or OH if unused. Where a SMILES comes first, the peptide text is derived from it. [ ]: non-standard residue; d: D form. The star is where a group is joined. NHPhenethyl = c1ccc(CCN*)cc1; Isobutyryl = CC(C)C(=O)*; Ac4c = NC1(C(=O)O)CCC1; Deg = CCC(N)(CC)C(=O)O; Aib = CC(C)(N)C(=O)O; CO = O=C([*:1])[*:2]; NHBn = c1ccc(CN*)cc1; Butyryl = CCCC(=O)*; Bz = O=C(c1ccccc1)*; NHPh = c1ccc(N*)cc1; For = O=C*
Target: WDR5 (Homo sapiens (Human), UniProt P61964)
Experiment: FP based competitive binding assay to WDR5
Experimental: Another aspect of the invention is development of a Fluorescent Polarization (FP) based competitive binding assay. […] Next, the millipolarization (mP) values were measured at different time points in order to determine equilibrium duration and stability.
Accordingly, the optimal protein concentrations for the competitive assay was investigated.
All the FP based experiments were performed in MICROFLUOR® 2 Black, “U” Bottom, 96-well Microtiter Plates (ThermoSci.) and FP was measured as mP units in a microplate reader (Tecan Ultra) with excitation at 485 nm and emission at 530 nm. The Kd of the tracers and the IC50 value of the inhibitors were calculated using GraphPad Prism 4 software.
The binding affinities of the synthetic peptides shown in the study were measured using this competitive binding assay. A pre-incubated complex solution of WDR5Δ23 and the tracer in 120 μl assay buffer were added to dilutions of the test compound in 5 μl DMSO, giving final concentrations of WDR5Δ23 and the tracer of 4 nM and 0.6 nM, respectively. […] The plates were incubated with shaking at room temperature. The mP values were measured after five hours of incubation and Ki values were calculated using the equation described previously(31).

[1] = read-out: Binding Affinity to WDR5 (IC50 ± SD), Table 5 peptidomimetics
[2] = 4 nM WDR5Δ23, 0.6 nM 10mer-Thr-FAM tracer, Ki calculated by equation of ref. 31, read-out: Ki ± SD
[3] = 4 nM WDR5Δ23, 0.6 nM 10mer-Thr-FAM tracer, read-out: IC50 ± SD

Row | Compound | IC50 [1] [µM] | further results
1 | C[C@H](NC(=O)[C@H](CCCNC(=N)N)NC(=O)[C@H](C)NC(=O)C1CCC1)C(N)=O [Compound 9F] | < 10 | 
2 | CC[C@H](NC(=O)[C@H](CCCNC(=N)N)NC(=O)C(CC)(CC)NC(=O)C(C)C)c1ccccc1 [Compound 11K] | < 3 | 
3 | Ac-ARAEVHL-NH2 [Ac-7mer, Ac-ARAEVHL-NH2] |  | fold decrease of binding affinity relative to Ac-10mer (ratio vs Ac-10mer): 10; IC50 (read-out: IC50 ± SD): 0.16 ± 0.03 µM; Ki (read-out: Ki ± SD): 0.03 ± 0.01 µM
4 | CC(=O)NC1(C(=O)N[C@@H](CCCNC(=N)N)C(=O)N[C@H](C(N)=O)C(C)C)CCCCC1 [Compound 4D] | < 1 | 
5 | CC(=O)NC(C)(C)C(=O)N[C@@H](CCCNC(=N)N)C(=O)NC1(C(N)=O)CCCC1 [Compound 6B] | < 1 | 
6 | CC(=O)NC(C)(C)C(=O)N[C@@H](CCCNC(=N)N)C(=O)N[C@H](C(N)=O)[C@@H](C)O [Compound 6C] (Ac-[Aib]-Arg-Thr-NH2) | < 1 | 
7 | CC[C@H](NC(=O)[C@H](CCCNC(=N)N)NC(=O)C1(NC(C)=O)CCC1)C(=O)NCc1ccccc1 [Compound 8A] | < 1 | 
8 | CCC(CC)(NC(=O)C(C)C)C(=O)N[C@@H](CCCNC(=N)N)C(=O)NC1CCCC1 [Compound 11I] | < 10 | 
9 | CCC(CC)(NC(=O)C(C)C)C(=O)N[C@@H](CCCNC(=N)N)C(=O)NCCc1ccccc1 [Compound 11L] (Isobutyryl-[Deg]-Arg-NHPhenethyl) | > 10 | 
10 | CC[C@H](NC(=O)[C@H](CCCNC(=N)N)NC(=O)C(C)(C)NC(C)=O)C(N)=O [Compound 6A] | < 1 | 
11 | CC(=O)N[C@@H](C)C(=O)N[C@@H](CCCNC(=N)N)C(=O)N[C@@H](C)C(=O)N[C@@H](CCC(=O)O)C(N)=O [Ac-4mer, Ac-ARAE-NH2] (Ac-ARAE-NH2) |  | Ki [2]: 0.08 ± 0.01 µM; IC50 [3]: 0.4 ± 0.05 µM
12 | C[C@H](N)C(=O)N[C@@H](CCCNC(=N)N)C(=O)N[C@H](C(=O)N[C@@H](CCCC[N+](C)(C)C)C(=O)N[C@@H](CCC(N)=O)C(=O)N[C@H](C(=O)N[C@@H](C)C(=O)N[C@@H](CCCNC(=N)N)C(=O)N[C@@H](CCCCN)C(=O)N[C@@H](CO)C(N)=O)[C@@H](C)O)[C@@H](C)O [L3-10mer-K4Me3, H2N-ARTK(Me3)QTARKS-NH2, reference compound] |  | Ki [2]: 15.6 ± 1.2 µM; IC50 [3]: 73 ± 6 µM
13 | C[C@H](NC(=O)[C@H](CCCNC(=N)N)NC(=O)[C@H](C)NC(=O)c1ccccc1)C(N)=O [Compound 9H] (Bz-Ala-Arg-Ala-NH2) | > 1 | 
14 | CCC(CC)(NC(=O)C(C)C)C(=O)N[C@@H](CCCNC(=N)N)C(=O)NC1(C(N)=O)CCCC1 [Compound 10C] | < 1 | 
15 | CC(=O)N[C@H](C(=O)N[C@@H](CCCNC(=N)N)C(=O)NC1(C(N)=O)CC1)C(C)C [Compound 5A] | < 10 | 
16 | CC(=O)N[C@@H](C)C(=O)N[C@@H](CCCNC(=N)N)C(N)=O [Ac-2mer, Ac-AR-NH2] (Ac-Ala-Arg-NH2) |  | Ki [2]: 27 ± 1.4 µM; IC50 [3]: 125 ± 6 µM
17 | CCC(CC)(NC(=O)c1ccccc1)C(=O)N[C@H](CCCNC(=N)N)C(=O)NC1(C(N)=O)CCCC1 [Compound 10F] | > 5 | 
18 | CCC(CC)(NC(=O)c1ccccc1)C(=O)N[C@@H](CCCNC(=N)N)C(=O)NC1(C(N)=O)CCCC1 [Compound 10E] | > 1 | 
19 | CC(=O)NC1(C(=O)N[C@@H](CCCNC(=N)N)C(=O)N[C@H](C(N)=O)C(C)C)CC1 [Compound 4A] | < 1 | 
20 | CC(=O)N[C@@H](C)C(=O)N[C@@H](CCCNC(=N)N)C(=O)N[C@H](C(N)=O)[C@@H](C)O [Ac-H3-3mer, Ac-ART-NH2] (Ac-Ala-Arg-Thr-NH2) |  | IC50 [3]: 0.08 ± 0.003 µM; Ki (read-out: Ki): 0.02 µM; fold increase of binding affinity to WDR5 on acetylation of the free amino group (vs corresponding unacetylated H3 peptide): 1500
21 | C[C@H](N)C(=O)N[C@@H](CCCNC(=N)N)C(=O)N[C@@H](C)C(N)=O [Compound H2N-3mer, H2N-ARA-NH2] (H-Ala-Arg-Ala-NH2) |  | binding to WDR5 (in words): does not bind to WDR5 up to the concentrations tested

Row | Compound | IC50 [1] [µM] | further results
22 | CCCC(=O)N[C@@H](C)C(=O)N[C@@H](CCCNC(=N)N)C(=O)N[C@@H](C)C(N)=O [Compound 9C] (Butyryl-Ala-Arg-Ala-NH2) | < 5 | 
23 | C[C@H](N)C(=O)N[C@@H](CCCNC(=N)N)C(=O)N[C@H](C(N)=O)[C@@H](C)O [Compound H3-3mer, H2N-ART-NH2, reference compound] (H-Ala-Arg-Thr-NH2) |  | Ki [2]: 27.3 ± 2.5 µM; IC50 [3]: 127 ± 12 µM
24 | CC(C)C[C@H](NC(=O)[C@H](Cc1c[nH]cn1)NC(=O)[C@@H](NC(=O)[C@H](CCC(=O)O)NC(=O)[C@H](C)NC(=O)[C@H](CCCNC(=N)N)NC(=O)[C@H](C)N)C(C)C)C(=O)N[C@@H](CCCNC(=N)N)C(=O)N[C@@H](CCCCN)C(=O)N[C@@H](CO)C(N)=O [Compound H2N-10mer] |  | Ki [2]: 7.3 ± 0.7 µM; IC50 [3]: 34 ± 3 µM
25 | CCC(CC)(NC(=O)c1ccccc1)C(=O)N[C@@H](CCCNC(=N)N)C(=O)NC1(C(=O)NC(c2ccccc2)c2ccccc2)CCCC1 [Compound 10I] | > 5 | 
26 | CC(=O)N[C@@H](C)C(=O)N[C@@H](CCCNC(=N)N)C(=O)N[C@@H](C)C(=O)NCc1ccccc1 [Compound 7E] (Ac-Ala-Arg-Ala-NHBn) | < 1 | 
27 | CCC(CC)(NC(=O)C(C)C)C(=O)N[C@@H](CCCNC(=N)N)C(=O)NCCCCc1ccccc1 [Compound 11N] | < 10 | 
28 | Ac-ARAEVH-NH2 [Ac-6mer, Ac-ARAEVH-NH2] |  | IC50 (read-out: IC50 ± SD): 0.4 ± 0.1 µM; Ki (read-out: Ki ± SD): 0.09 ± 0.02 µM
29 | C[C@H](NC(=O)[C@H](CCCNC(=N)N)NC(=O)[C@H](C)NC=O)C(N)=O [CHO-3mer, CHO-ARA-NH2] (For-Ala-Arg-Ala-NH2) |  | Ki [2]: 3.2 ± 0.3 µM; IC50 [3]: 14.9 ± 1.4 µM; times less potent than Ac-3mer (ratio vs Ac-3mer): 25
30 | CC(=O)N[C@H](C(=O)N[C@@H](CCCNC(=N)N)C(=O)NC1(C(N)=O)CCC1)C(C)C [Compound 5B] | < 10 | 
31 | CCC(CC)(NC(C)=O)C(=O)N[C@@H](CCCNC(=N)N)C(=O)NC1(C(N)=O)CCCC1 [Compound 6G] | < 1 | 
32 | CC(=O)NC1(C(=O)N[C@@H](CCCNC(=N)N)C(=O)N[C@H](C(N)=O)[C@@H](C)O)CCC1 [Compound 6F] (Ac-[Ac4c]-Arg-Thr-NH2) | < 1 | 
33 | CCCC[C@H](NC(=O)[C@H](C)NC(C)=O)C(=O)N[C@@H](C)C(N)=O [Compound 2A] | > 1 | 
34 | CCC(CC)(NC(=O)c1ccccc1)C(=O)N[C@H](CCCNC(=N)N)C(=O)NC1(C(=O)NC(c2ccccc2)c2ccccc2)CCCC1 [Compound 10J] | < 10 | 
35 | C[C@H](NC(=O)[C@H](CCCNC(=N)N)NC(=O)[C@H](C)NC(=O)N(C)C)C(N)=O [Compound 9J] ({NMe2-CO}-Ala-Arg-Ala-NH2) | < 100 | 
36 | CCC(CC)NC(=O)[C@H](C)NC(=O)[C@H](CCCNC(=N)N)NC(=O)[C@H](C)NC(C)=O [Compound 7B] | < 1 | 
37 | CC(C)C(=O)N[C@@H](C)C(=O)N[C@@H](CCCNC(=N)N)C(=O)N[C@@H](C)C(N)=O [Compound 9A] (Isobutyryl-Ala-Arg-Ala-NH2) | < 1 | 
38 | CCC(CC)(NC(=O)C(C)C)C(=O)N[C@@H](CCCNC(=N)N)C(=O)Nc1ccccc1 [Compound 11C] (Isobutyryl-[Deg]-Arg-NHPh) | < 10 | 
39 | CC(=O)N[C@H](C(=O)N[C@@H](CCCNC(=N)N)C(=O)NC1(C(N)=O)CCCC1)C(C)C [Compound 5C] | < 1 | 
40 | CCC(CC)(NC(=O)C(C)C)C(=O)N[C@@H](CCCNC(=N)N)C(=O)NC1CCCCC1 [Compound 11E] | < 10 | 
41 | CC(=O)N[C@@H](C)C(=O)N[C@@H](CCCNC(=N)N)C(=O)N[C@@H](C)C(=O)NC1CCCCC1 [Compound 7C] | < 1 | 
